Values of other authors as cited in US20100158923A1, “REDUCING POLYGLUTAMINE-BASED AGGREGATION” (Northwestern University, priority 2003, published 2010).

How the values were obtained:
GH release = conditions: administered orally and parenterally
IGF-1 levels = conditions: administered subcutaneously
human SST2 = human SST2 (Homo sapiens, UniProt P30874)
Sequence of human SST2 (P30874 whole entry): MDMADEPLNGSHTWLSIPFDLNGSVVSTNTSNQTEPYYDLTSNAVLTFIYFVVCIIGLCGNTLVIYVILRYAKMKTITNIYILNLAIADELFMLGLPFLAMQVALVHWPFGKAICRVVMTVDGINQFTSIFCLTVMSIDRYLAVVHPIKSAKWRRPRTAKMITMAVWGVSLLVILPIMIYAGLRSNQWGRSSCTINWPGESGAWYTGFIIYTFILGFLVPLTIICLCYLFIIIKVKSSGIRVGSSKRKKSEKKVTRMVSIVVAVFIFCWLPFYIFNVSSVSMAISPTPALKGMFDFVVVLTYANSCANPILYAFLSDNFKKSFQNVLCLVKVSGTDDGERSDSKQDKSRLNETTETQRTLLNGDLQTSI

Compound: CC(C)(N)C(=O)N[C@H](COCc1ccccc1)C(=O)N1CCC2(CC1)CN(S(C)(=O)=O)c1ccccc12 [MK-0677]
- GH-releasing effects (GH release): potent GH-releasing effects

Compound: Pegvisomant: modified human GH in which nine amino acids have been replaced, with polyethylene glycol polymers; GH receptor antagonist
- effect on IGF-1 levels (IGF-1 levels): dose dependent reduction

Compound: CC(C)(C)OC(=O)[C@H](CCCCN)NC(=O)[C@@H](Cc1c[nH]c2ccccc12)NC(=O)N1CCC(n2c(=O)[nH]c3ccccc32)CC1 [L-054,522]
- selectivity (human SST2; SST2 binding, comparison receptors not stated): highly selective
- Kd (human SST2; binding to human SST2, read-out: apparent Kd): 0.01 nM

Compound: [N-acetyl-Tyr^1,D-Arg^2] GHRH^1-29NH2 [standard GHRH antagonist]
- effect on human GH secretory response to exogenous GHRH (GH secretion; response to exogenous GHRH): inhibits
- effect on spontaneous GH secretion (GH secretion; spontaneous GH secretion): lowers
